The source of these data is patent EP4631938A1, “NITROGEN-CONTAINING HETEROCYCLE WITH SEROTONIN RECEPTOR-BINDING ACTIVITY AND CARBOCYCLIC DERIVATIVE” (Shionogi & Co., Ltd, priority 2022, dated 2024).

Test [1] deals with T1, human recombinant 5-HT2C receptor (Homo sapiens, UniProt P28335).
T1 construct: expressed in transfected cells; host or cells: Jump-In HEK cells (membrane preparation)
T1 sequence (P28335 33-458): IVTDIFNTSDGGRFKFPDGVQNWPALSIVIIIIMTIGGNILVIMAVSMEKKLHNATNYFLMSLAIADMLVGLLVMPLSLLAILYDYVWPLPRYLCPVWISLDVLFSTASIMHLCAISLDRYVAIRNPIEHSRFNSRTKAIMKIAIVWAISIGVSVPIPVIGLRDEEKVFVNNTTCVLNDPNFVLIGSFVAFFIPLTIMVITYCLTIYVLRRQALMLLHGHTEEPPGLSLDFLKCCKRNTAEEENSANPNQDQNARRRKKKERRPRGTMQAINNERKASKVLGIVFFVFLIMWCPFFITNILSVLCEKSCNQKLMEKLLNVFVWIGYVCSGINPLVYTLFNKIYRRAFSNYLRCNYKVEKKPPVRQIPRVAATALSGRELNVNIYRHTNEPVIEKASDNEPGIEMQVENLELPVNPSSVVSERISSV
Nature of the test: Test Example 2: 5-HT2C receptor binding inhibition test ([3H]-Mesulergine; non-specific ligand Serotonin HCl). The note with it: human serotonin 5-HT2C receptor binding activity. As for the experimental part:
The Kd value is calculated when the lot of the cell membrane is changed. 1 mmol/L non-specific binding calculating compound dissolved in DMSO or DMSO is previously dispensed to the microplate by 0.5 µL, and the cell membrane is diluted with an Assay buffer. The radioactive ligand solution is diluted step by step, and counts are checked with a liquid scintillator. The Assay buffer containing diluted cell membranes is dispensed by 50 µL/well into the microplate. The radioactive ligand solution is then dispensed by 50 µL/well into the microplate and the plate is sealed. The microplate is allowed to stand at 37°C for 2 hours. During this time, 50 mmol/L Tris-HCl (pH 7.4) is dispensed by 50 µL/well into the GF/B UniFilter plate and allowed to stand at 4°C for 1 hour or longer. Thereafter, filtration is performed with a Cell Harvester (PerkinElmer). The radioactive ligand solution is dispensed by 10 µL/well into empty wells of the GF/B UniFilter plate. After drying the GF/B UniFilter plate at room temperature, MicroScinti20 is dispensed by 50 µL/well into the GF/B UniFilter plate, and the plate is sealed. GF/B UniFilter plate is allowed to stand at room temperature overnight. The radioactivity of [^3H]-Mesulergine bound to the 5-HT2C receptor is measured using Microbeta2 (PerkinElmer) at a measurement time of 1 min/well. The Saturation curve is drawn from the measured value, and the Kd value is calculated from the slope of the Scatchard Plot.
A compound solution dissolved in DMSO is dispensed to a microplate by 0.5 µL, and a cell membrane and a hot ligand are each diluted with an Assay buffer. The Assay buffer containing diluted cell membrane is then dispensed by 50 µL/well into the microplate. The radioactive ligand solution is then dispensed by 50 µL/well into the microplate and the plate is sealed. The microplate is then allowed to stand at 37°C for 2 hours. During this time, 50 mmol/L Tris-HCl (pH 7.4) is dispensed by 50 µL/well into the GF/B UniFilter plate and allowed to stand at 4°C for 1 hour or longer. Thereafter, filtration is performed with a Cell Harvester (PerkinElmer). After drying the GF/B UniFilter plate at room temperature, MicroScinti20 is dispensed by 50 µL/well into the GF/B UniFilter plate, and the plate is sealed. GF/B UniFilter plate is allowed to stand at room temperature overnight. The radioactivity of [^3H]-Mesulergine bound to the 5-HT2C receptor is measured using Microbeta2 (PerkinElmer) at a measurement time of 1 min/well. Non-specific binding is calculated from the radioactivity of [^3H]-Mesulergine in the presence of 500 µmol/L Serotonin HCl of unlabeled ligand, and total binding is calculated from the radioactivity of [^3H]-Mesulergine in the absence of the compound of the present invention (Vehicle). Finally, the Ki value is calculated from the dose-response curve.
(§1) (The binding activity of the compound according to the present invention is calculated from the following binding inhibition rate (%).) Inhibition rate (%) = [1−(c−a)/(b−a)] × 100 [formula] • a; average cpm of non-specific binding • b; average cpm of total binding • c; cpm in the presence of the test compound
(§2) The compounds of the present invention were tested essentially as described above.

Test [2] has as its target T2, human recombinant 5-HT2A receptor (Homo sapiens, UniProt P28223).
T2 construct: expressed in transfected cells; host or cells: Jump-In HEK cells (membrane preparation)
Briefly: Test Example 1-2: 5-HT2A receptor binding inhibition test ([3H]-Ketanserin; non-specific ligand Ketanserin). As for the experimental part:
The Kd value is calculated when the lot of the cell membrane is changed. 1 mmol/L non-specific binding calculating compound dissolved in DMSO or DMSO is previously dispensed to the microplate by 0.5 µL, and the cell membrane is diluted with an Assay buffer. The radioactive ligand solution is diluted step by step, and counts are checked with a liquid scintillator. The Assay buffer containing diluted cell membranes is dispensed by 50 µL/well into the microplate. The radioactive ligand solution is then dispensed by 50 µL/well into the microplate and the plate is sealed. The microplate is allowed to stand for 1.5 hours at room temperature (25°C). During this time, 50 mmol/L Tris-HCl (pH 7.4) is dispensed by 50 µL/well into the UniFilter plate and allowed to stand at 4°C for 1 hour or longer. Thereafter, filtration is performed with a Cell Harvester (PerkinElmer). The radioactive ligand solution is dispensed by 10 µL/well into empty wells of the UniFilter plate. After drying the UniFilter plate at room temperature, MicroScinti20 is dispensed by 50 µL/well into the UniFilter plate, and the plate is sealed. UniFilter plate is allowed to stand at room temperature overnight. The radioactivity of [^3H]-Ketanserin bound to the 5-HT2A receptor is measured using Microbeta2 (PerkinElmer) at a measurement time of 1 min/well. The Saturation curve is drawn from the measured value, and the Kd value is calculated from the slope of the Scatchard Plot.
A compound solution dissolved in DMSO is dispensed to a microplate by 0.5 µL, and a cell membrane and a hot ligand are each diluted with an Assay buffer. The Assay buffer containing diluted cell membrane is then dispensed by 50 µL/well into the microplate. The radioactive ligand solution is then dispensed by 50 µL/well into the microplate and the plate is sealed. Thereafter, the microplate is allowed to stand at room temperature (25°C) for 1.5 hours. During this time, 50 mmol/L Tris-HCl (pH 7.4) is dispensed by 50 µL/well into the UniFilter plate and allowed to stand at 4°C for 1 hour or longer. Thereafter, filtration is performed with a Cell Harvester (PerkinElmer). After drying the UniFilter plate at room temperature, MicroScinti20 is dispensed by 50 µL/well into the UniFilter plate, and the plate is sealed. UniFilter plate is allowed to stand at room temperature overnight. The radioactivity of [^3H]-Ketanserin bound to the 5-HT2A receptor is measured using Microbeta2 (PerkinElmer) at a measurement time of 1 min/well. Non-specific binding is calculated from the radioactivity of [^3H]-Ketanserin in the presence of 500 µmol/L Ketanserin of unlabeled ligand, and total binding is calculated from the radioactivity of [^3H]-Ketanserin in the absence of the compound of the present invention (Vehicle). Finally, the Ki value is calculated from the dose-response curve.
as §1, §2

The mark [3] stands for this setting: [3H]-Ketanserin; non-specific binding with 500 µmol/L Ketanserin; room temperature (25°C), 1.5 hours; read-out: h 5-HT2A Ki.
Where [4] appears, read: read-out: h 5-HT2A Ki; [3H]-Ketanserin; non-specific binding with 500 µmol/L Ketanserin; room temperature (25°C), 1.5 hours.

The term Ki denotes a dissociation constant, usually derived from enzyme kinetics or from competition with a known ligand.

Where two headings read alike, the source gives them in different places.

T2 sequence (P28223 whole entry): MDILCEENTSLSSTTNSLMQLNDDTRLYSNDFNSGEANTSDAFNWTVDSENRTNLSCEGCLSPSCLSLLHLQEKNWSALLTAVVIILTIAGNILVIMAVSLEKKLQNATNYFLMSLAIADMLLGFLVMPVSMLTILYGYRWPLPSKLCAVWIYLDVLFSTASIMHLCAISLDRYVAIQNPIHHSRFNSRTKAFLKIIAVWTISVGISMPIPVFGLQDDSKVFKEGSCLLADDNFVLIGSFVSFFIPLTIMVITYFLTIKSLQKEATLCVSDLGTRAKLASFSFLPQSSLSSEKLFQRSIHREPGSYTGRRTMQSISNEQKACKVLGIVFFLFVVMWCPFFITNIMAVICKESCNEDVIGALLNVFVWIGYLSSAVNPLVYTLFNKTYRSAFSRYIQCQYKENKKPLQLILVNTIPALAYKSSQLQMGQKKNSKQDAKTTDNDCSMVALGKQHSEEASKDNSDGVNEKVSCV

`COCc1nc(C)c(-c2cc(Nc3ncc(-c4ccc(F)cc4F)cc3Cl)ncc2OCCO)c(C)n1` [Compound I-256]: the Ki came out at 0.322 nM in test [1] and 0.5 nM in test [2] (setting [3]).

With `Cn1ncc(Cl)c1-c1cc(Nc2ccc(OC(C)(F)F)cn2)ncc1OCCO` [Compound I-229], the results for the Ki in test [1] and in test [2] (setting [3]) were 2.22 nM and 0.28 nM, respectively.

On to `COCc1nc(C)c(-c2cc(Nc3ncc(C(F)(F)F)cc3F)c(F)cc2OCCO)c(C)n1` [Compound I-184], for which the results for the Ki in test [1] and in test [2] (setting [3]) were 2.98 nM and 3.84 nM, respectively.

For `Cn1ncc(F)c1-c1cc(Nc2ncc(Cl)cc2F)c(F)cc1OCCO` [Compound I-171], the Ki in test [1] came to 5.81 nM; in test [2] (setting [3]), 0.16 nM.

In the case of `COCc1nc(C)c(-c2cc(Nc3ccc(C(F)(F)F)c(C)n3)ncc2OCCO)c(C)n1` [Compound I-248], the Ki in test [1] was found to be 4.78 nM; in test [2] (setting [3]), 0.794 nM.

As for `COCc1nc(C)c(-c2nc(Nc3cc(-c4ccccc4)no3)c(F)cc2OCCO)c(C)n1` [Compound I-393], the values for the Ki in test [1] and in test [2] (setting [3]) were 78.9 nM and 17.6 nM, respectively.

On to `COCc1nc(C)c(-c2cc(Nc3ccc(OCc4ccccc4)cn3)ncc2OCCO)c(C)n1` [Compound I-324], for which the Ki in test [1] is 8.52 nM; in test [2] (setting [3]), 0.421 nM.

For `Cc1cnn(C)c1-c1cc(Nc2ncc(OC(F)(F)F)cc2Cl)ncc1OCCO` [Compound I-183], the Ki in test [1] was 1.22 nM; in test [2] (setting [3]), 0.271 nM.

Regarding `CNC(=O)c1ccc(F)c(-c2cc(Nc3ncc(C(F)(F)F)cc3F)ncc2OCCO)c1` [Compound I-391], the Ki in test [1] amounted to 19 nM; in test [2] (setting [3]) it was 0.357 nM.

Take `Cc1nc(COC2CCCOC2)nc(C)c1-c1cc(Nc2ncc(C(F)(F)F)cc2Cl)ncc1OCCO` (racemic) [Compound I-382]: the results for the Ki in test [1] and in test [2] (setting [3]) were 3.43 nM and 2.44 nM, respectively.

With `COCc1nc(C)c(-c2cc(Nc3ncc(OC4CC(F)(F)C4)cc3Cl)ncc2OCCO)c(C)n1` [Compound I-332], the Ki in test [1] came out at 3.12 nM; in test [2] (setting [3]), 5.58 nM.

`Cn1ncc(Br)c1-c1nc(Nc2ccc(OC(F)F)cc2)ncc1OCCO` [Compound I-353]: the Ki in test [1] is 0.975 nM; in test [2] (setting [3]), 0.179 nM.

`COCc1nc(C)c(-c2cc(Nc3ncc(-c4ncc(OC)cn4)cc3Cl)ncc2OCCO)c(C)n1` [Compound I-253]: the Ki in test [1] stood at 4.42 nM; in test [2] (setting [3]) it was 2.74 nM.

As to `COCc1nc(C)c(-c2cc(Nc3ccc(C4CC(F)(F)C4)cn3)ncc2OCCO)c(C)n1` [Compound I-192], the Ki was 9.15 nM in test [1] and 2.31 nM in test [2] (setting [3]).

In the case of `Cn1ncc(Cl)c1-c1nc(Nc2ccc(OC(F)(F)F)cn2)c(F)cc1OCCO` [Compound I-386], the Ki worked out at 5.22 nM in test [1] and 0.244 nM in test [2] (setting [3]).

Consider `Cn1ncc(Cl)c1-c1cc(Nc2ncc(C(F)(F)F)cn2)c(F)cc1OCCO` [Compound I-161], for which the Ki in test [1] was determined as 1.13 nM; in test [2] (setting [3]), 0.361 nM.

In the case of `Cc1nc(C2CCO2)nc(C)c1-c1cc(Nc2ncc(C(F)(F)F)cc2Cl)ncc1OCCO` (racemic) [Compound I-216], the Ki in test [1] amounted to 5.53 nM; in test [2] (setting [3]), 1.81 nM.

Consider `Cc1nc(C2COC2)nc(C)c1-c1cc(Nc2ncc(C(F)(F)F)cc2Cl)ncc1OCCO` [Compound I-207], for which the figures for the Ki in test [1] and in test [2] (setting [3]) were 6.02 nM and 2.23 nM, respectively.

With `Cn1ncc(Br)c1-c1cc(Nc2ncc(C(F)(F)F)cc2F)c(Cl)cc1OCCO` [Compound I-399], the Ki in test [1] turned out to be 0.86 nM; in test [2] (setting [3]), 0.347 nM.

Consider `Cc1cc(OC(F)F)cnc1Nc1cc(-c2c(C)cnn2C)c(OCCO)cn1` [Compound I-176], for which the values for the Ki in test [1] and in test [2] (setting [3]) were 6.81 nM and 0.453 nM, respectively.

With `Cn1ncc(Br)c1-c1cc(Nc2ccc(OC(F)F)cn2)ncc1OCCO` [Compound I-288], the inhibition constant Ki in test [1] came to 0.78 nM; in test [2] (setting [3]), 0.387 nM.

As to `COCc1nc(C)c(-c2cc(Nc3ncc(-n4cc(C(F)F)cn4)cc3Cl)ncc2OCCO)c(C)n1` [Compound I-327], the figures for the Ki in test [1] and in test [2] (setting [3]) were 2.69 nM and 2.4 nM, respectively.

On to `Cc1ccc(CO)cc1-c1cc(Nc2ncc(C(F)(F)F)cc2F)ncc1OCCO` [Compound I-373], for which the Ki in test [1] was determined as 64.7 nM; in test [2] (setting [3]), 1.21 nM.

In the case of `COCc1nc(C)c(-c2cc(Nc3ncc(-c4ccc(F)c(Cl)c4)cc3Cl)ncc2OCCO)c(C)n1` [Compound I-255], the figures for the Ki in test [1] and in test [2] (setting [3]) were 0.36 nM and 0.52 nM, respectively.

With `Cc1nc(C)c(-c2cc(Nc3ncc(OCC(F)(F)C(F)(F)F)cc3Cl)ncc2OCCO)c(C)n1` [Compound I-250], the Ki in test [1] is 2.43 nM.

In the case of `Cn1ncc(Br)c1-c1cc(Nc2ncc(Cl)cn2)ccc1OCCO` [Compound I-119], the Ki in test [2] (setting [3]) turned out to be 0.315 nM.

With `CC(CO)Oc1cnc(Nc2ncc(C(F)(F)F)cc2F)cc1-c1c(Br)cnn1C` (single isomer, unassigned) [Compound I-225], in test [2] (setting [4]), the Ki came out at 0.396 nM.

`CC(CO)Oc1cnc(Nc2ncc(C(F)(F)F)cc2F)cc1-c1c(Br)cnn1C` (single isomer, unassigned) [Compound I-224]: the Ki in test [2] (setting [4]) was found to be 0.521 nM.

Consider `Cc1nc(C)c(-c2cc(Nc3ncc(C(F)(F)F)cc3F)c(F)cc2OCCO)c(C)n1` [Compound I-146], for which the Ki in test [2] (setting [3]) is 0.678 nM.
